{"source": "patent US20090181931A1", "about": "“ANTIVIRAL ACTIVITY OF CIDOFOVIR AGAINST ONCOLYTIC VIRUSES” (priority 2008, published 2009)", "key": {"Telomelysin (OBP-301) [1]": {"test_system": "Telomelysin (OBP-301)", "assay": "Real-time quantitative PCR, viral E1A copy number, Telomelysin in H1299 cells", "type": "cell-based, adenovirus", "settings": "for E1A copy number, % (relative to 0 μM) / E1A copy number/ng DNA: Telomelysin MOI 10, H1299, 24 hours", "experimental": "Cells were seeded in 6-well plate (2 mL/well, 2×10^5 cells/well), and incubated with 5% CO2 at 37° C.\nViruses were diluted at a MOI of 10. Medium in each well was removed, 500 μL of diluted virus solution was added to each well of the plate. Plates were incubated with 5% CO2 at 37° C. for 2 hours with gently shaking every 15 minutes. Medium was aspirated, washed with PBS twice, and replaced with fresh medium containing 2% FCS and serially diluted CDV. Cells were incubated with 5% CO2 at 37° C. for 24 hours after infection.\nCells were detached with Trypsin-EDTA, and collected by centrifuging. Total DNA was extracted using QIAamp™ DNA Mini Kit according to manufacture's instructions with some modifications: addition of 20 μL of RNaseA in each sample when adding ProK. DNA was eluted by 50˜100 μL of D. W.\nConcentration of DNA was determined by measuring O.D.260. Each DNA samples was diluted by D. W. at a concentration of 5 ng/μL.\nMaster-mix for E1A primer was prepared using LightCycler™ Faststart DNAMaster SYBR Green™ according to Table 1. Standard DNA was prepared by serially 10 times dilution of pCRII-E1A plasmid (1×10^9, 1×10^8, 1×10^7, 1×10^6, 1×10^5, 1×10^4, and 1×10^3 copies/μL). 2 μL of Sample or Standard DNA was and 18 μL of Master mix were added into capillaries (total volume was 20 μL per capillary).\nQ-PCR was performed according to the program of Table 2 (LightCycler quicksystem 350S). Results obtained here were analyzed using LightCycler softwere."}, "Telomelysin (OBP-301) [2]": {"test_system": "Telomelysin (OBP-301)", "assay": "XTT assay, protection from cytopathic effect of Telomelysin in H1299 cells", "type": "cell-based, adenovirus", "settings": "for Protection (%) Ave. / Protection (%): Telomelysin MOI 1, H1299, 7 days; for Protection (%): single wells, dihydrate", "experimental": "Cells frozen in liquid nitrogen were thawed in water bath at 37° C., seeded at T25 flask, and cultured at 70-90% sub-confluent monolayer. Cells were detached with trypsin, and prepared suspension at a concentration of 1.0×10^4 cells/ml.\nCells were seeded in 96 well-plate (100 μL/well, 1000 cells/well), then cultured with 5% CO2 at 37° C.\nViruses were diluted at MOI of 1 (OBP-301, OBP-202) in H1299 and 5 in A549 (PFU/cell). Medium in each well was removed, 150 μL of diluted virus solution was added to each well of the plate. 2 hours later, medium was aspirated and replaced with fresh medium containing 2% FCS and serially diluted CDV. Cells were incubated with 5% CO2 at 37° C. for 7 days after infection.\n100 μL of PBS, 50 μL of XTT labeling reagent, and 1 μL of ion coupling reagent per well of plate were mixed.\nMedium in each well of plate was removed, and 150 μL of mixture prepared above was added to each well. Plate was incubated with 5% CO2 at 37° C. for 4 hours, and then calculated absorbance at 450 nm and 690 nm. Protection was determined by the formula below:\nProtection(%)={OD(AdV(+):CDV(+))−OD(AdV(+):CDV(−))}/{OD(AdV(−):CDV(+))−OD(AdV(+):CDV(−))}×100."}}, "note": "“And” between values parts separate entries of the source, which are not always exact repeats. Identical values can stand only once."}
{"smiles": "Nc1ccn(C[C@@H](CO)OCP(=O)(O)O)c(=O)n1.O.O", "note": "[CDV, 1-[(S)-3-hydroxy-2-(phosphonomethoxy)propyl]cytosine dihydrate]", "values": [{"measurement": "E1A copy number, % (relative to 0 μM)", "setting": "Telomelysin (OBP-301) [1]; CDV 0.16 μM", "value": 97.60, "unit": "%"}, {"measurement": "E1A copy number/ng DNA", "setting": "Telomelysin (OBP-301) [1]; CDV 0.16 μM", "value": "1.461E+08", "unit": "copy number/ng DNA"}, {"measurement": "E1A copy number, % (relative to 0 μM)", "setting": "Telomelysin (OBP-301) [1]; CDV 0.8 μM", "value": 98.93, "unit": "%"}, {"measurement": "E1A copy number/ng DNA", "setting": "Telomelysin (OBP-301) [1]; CDV 0.8 μM", "value": "1.481E+08", "unit": "copy number/ng DNA"}, {"measurement": "E1A copy number, % (relative to 0 μM)", "setting": "Telomelysin (OBP-301) [1]; CDV 4 μM", "value": 91.32, "unit": "%"}, {"measurement": "E1A copy number/ng DNA", "setting": "Telomelysin (OBP-301) [1]; CDV 4 μM", "value": "1.367E+08", "unit": "copy number/ng DNA"}, {"measurement": "E1A copy number, % (relative to 0 μM)", "setting": "Telomelysin (OBP-301) [1]; CDV 20 μM", "value": 47.07, "unit": "%"}, {"measurement": "E1A copy number/ng DNA", "setting": "Telomelysin (OBP-301) [1]; CDV 20 μM", "value": "7.046E+07", "unit": "copy number/ng DNA"}, {"measurement": "E1A copy number, % (relative to 0 μM)", "setting": "Telomelysin (OBP-301) [1]; CDV 100 μM", "value": 9.99, "unit": "%"}, {"measurement": "E1A copy number/ng DNA", "setting": "Telomelysin (OBP-301) [1]; CDV 100 μM", "value": "1.496E+07", "unit": "copy number/ng DNA"}, {"measurement": "EC50", "setting": "Telomelysin (OBP-301) [1]; NCI-H1299, H1299 cells, real-time quantitative PCR, read-out: EC50 (E1A), CDV concentration that reduces the relative E1A copy number of Telomelysin to 50%", "value": 19.6, "unit": "µM"}, {"measurement": "Viral E1A copy number", "setting": "Telomelysin (OBP-301) [1]; Telomelysin, H1299 cells, dose-dependent manner", "value": "reduced"}, {"measurement": "Protection (%) Ave.", "setting": "Telomelysin (OBP-301) [2]; CDV 0.32 μM", "value": 7.983, "unit": "%"}, {"measurement": "Protection (%)", "setting": "Telomelysin (OBP-301) [2]; CDV 0.32 μM", "value": "10.293% and 11.665% and 3.980% and 5.993%"}, {"measurement": "Protection (%) Ave.", "setting": "Telomelysin (OBP-301) [2]; CDV 1.6 μM", "value": 0.274, "unit": "%"}, {"measurement": "Protection (%)", "setting": "Telomelysin (OBP-301) [2]; CDV 1.6 μM", "value": "3.339% and −5.901% and 1.144% and 2.516%"}, {"measurement": "Protection (%) Ave.", "setting": "Telomelysin (OBP-301) [2]; CDV 8 μM", "value": 3.065, "unit": "%"}, {"measurement": "Protection (%) Ave.", "setting": "Telomelysin (OBP-301) [2]; CDV 40 μM", "value": 83.829, "unit": "%"}, {"measurement": "Protection (%)", "setting": "Telomelysin (OBP-301) [2]; CDV 40 μM", "value": "88.243% and 72.049% and 84.950% and 90.073%"}, {"measurement": "Protection (%) Ave.", "setting": "Telomelysin (OBP-301) [2]; CDV 200 μM", "value": 29.369, "unit": "%"}, {"measurement": "Protection (%)", "setting": "Telomelysin (OBP-301) [2]; CDV 200 μM", "value": "29.414% and 30.878% and 28.957% and 28.225%"}, {"measurement": "Telomelysin-mediated cytopathic effect", "setting": "Telomelysin (OBP-301) [2]; H1299 cells, FIG. 1A", "value": "apparently inhibited"}, {"measurement": "EC50", "setting": "Telomelysin (OBP-301) [2]; NCI-H1299, Telomelysin, H1299 cells, XTT, read-out: EC50, CDV concentration that archive the protection to 50%", "value": 20.4, "unit": "µM"}]}
